Experimental data reported in US9932637B2, “Genetic polymorphisms associated with cardiovascular disorders and drug response, methods of detection and uses thereof” (CELERA CORPORATION, priority 2003, dated 2018).

Tests used:
[1] = system: patients with prior myocardial infarction (CARE study); assay: CARE: risk of cardiovascular disease events associated with pravastatin by CD6 or FCAR genotype (Tables 11, 12); assay type: in vivo, human; conditions: for RR (relative risk) of RMI associated with Pravastatin: recurrent MI during 5 years follow up; for OR of RMI associated with Pravastatin, Adjusted for Age, Smoking status, Gender / OR of RMI associated with Pravastatin, Adjusted for Age, Smoking status, Gender, hypertension, BMI, diabetes, baseline LDLD and HDL / OR of RMI associated with Pravastatin, Unadjusted: placebo group as reference
Excerpt: (§1) In order to identify genetic markers associated with acute coronary events (e.g. MI, stroke, unstable angina, congestive heart failure, etc.) or response to statin treatment for the prevention of coronary events, samples from the Cholesterol and Recurrent Events (CARE) study (a randomized multicentral double-blinded trial on secondary prevention of acute coronary events with pravastatin) (Sacks et al., 1991, Am. J. Cardiol. 68: 1436-1446) were genotyped. A well-documented myocardial infarction (MI) was one of the enrollment criteria for entry into the CARE study. Patients were enrolled in the CARE trial from 80 participating study centers. […] Patients were randomized to receive either 40 mg of pravastatin once daily or a matching placebo. The primary endpoint of the trial was death from coronary heart disease and the median duration of follow-up was 5.0 years (range, 4.0 to 6.2 years). […] Secondary endpoints of other related cardiovascular or metabolic disease events, and changes in clinical variables were also recorded in pravastatin-treated and placebo groups. All individuals included in the study had signed a written informed consent form and the study protocol was approved by the respective Institutional Review Boards (IRBs).
In both studies the individuals homozygous for the minor allele were statistically different from heterozygous and major allele homozygous individuals in the pravastatin treated group vs. the placebo treated group. This SNP was associated with a reduced risk of an adverse coronary event in the CARE and WOSCOPS studies with RR or OR of 0.13 and 0.23 respectively in the two studies. Therefore, SNPs identified as useful for predicting RMI may also be useful for predicting increased risk for developing primary MI.
Therefore, an allele found to be associated with risk for MI, RMI, stroke, or other adverse cardiovascular event, may also be useful for predicting responsiveness to statin treatment. SNPs associated with treatment response to pravastatin may also be predictive of responsiveness of an individual to other statins as a class.

[2] = system: patients with prior myocardial infarction (CARE study); assay: CARE trial: pravastatin vs placebo, recurrent MI (RMI), overall and by ABCA1/NPC1/HSPG2 genotype pattern; assay type: in vivo, human
Excerpt: as §1
For genotyping SNPs in CARE patient samples, DNA was extracted from blood samples using conventional DNA extraction methods such as the QIA-amp kit from Qiagen. Genotypes were obtained on an ABI PRISM® 7900HT Sequence Detection PCR system (Applied Biosystems, Foster City, Calif.) by kinetic allele-specific PCR, similar to the method described by Germer et al. (Germer S., Holland M. J., Higuchi R. 2000, Genome Res. 10: 258-266).
The genotype data generated from the DNA of patients who participated in the CARE study was analyzed to determine the effect that pravastatin treatment had on the occurrence of RMI in patients with each of the potential genotypes (low risk, protective or high risk, non-protective) for the ABCA1 gene, the NPC1 gene and the […] gene independently.
The effect of pravastatin treatment on the occurrence of RMI in patients with each of the potential genotypes (protective, low risk genotype or non-protective, high risk genotype) for each of the ABCA1 gene, NPC1 gene, and HSPG2 gene alone, and combinations with the other two genes thereof are presented in Table 17.
This is a 50% reduction in risk over a 5 year period for RMI. […] This is an 80% reduction in risk over a 5 year period for RMI.

[3] = FCAR hCV7841642 genotype AA + AG
[4] = Pattern 0, pravastatin vs placebo
[5] = Pattern 2, pravastatin vs placebo
[6] = Pattern 3, pravastatin vs placebo

## CC[C@H](C)C(=O)O[C@H]1C[C@H](O)C=C2C=C[C@H](C)[C@H](CC[C@@H](O)C[C@@H](O)CC(=O)O)[C@H]21 [pravastatin]
[1]; CD6 hCV2553030, homozygous for the minor allele
  RR or OR of adverse coronary event, pravastatin vs placebo: 0.13
[1]; CD6 hCV2553030 genotype Het (TC)
  RR (relative risk) of RMI associated with Pravastatin: 0.76
[1]; CD6 hCV2553030 genotype Major hom (CC)
  RR (relative risk) of RMI associated with Pravastatin: 0.8
[1]; CD6 hCV2553030 genotype Minor hom (TT)
  RR (relative risk) of RMI associated with Pravastatin: 0.13
[1]; CD6 hCV2553030 recessive (TT + CC)ref
  RR (relative risk) of RMI associated with Pravastatin: 0.78
[1]; CD6 hCV2553030 recessive (TT)
  RR (relative risk) of RMI associated with Pravastatin: 0.13
[1]; [3]
  OR of RMI associated with Pravastatin, Adjusted for Age, Smoking status, Gender: 0.31
  OR of RMI associated with Pravastatin, Adjusted for Age, Smoking status, Gender, hypertension, BMI, diabetes, baseline LDLD and HDL: 0.31
  OR of RMI associated with Pravastatin, Unadjusted: 0.32
[1]; FCAR hCV7841642 genotype GG
  OR of RMI associated with Pravastatin, Adjusted for Age, Smoking status, Gender: 0.79
  OR of RMI associated with Pravastatin, Adjusted for Age, Smoking status, Gender, hypertension, BMI, diabetes, baseline LDLD and HDL: 0.79
  OR of RMI associated with Pravastatin, Unadjusted: 0.81
[2]; All, pravastatin arm
  No RMI (number of patients): 1367
  RMI (number of patients): 106
  Risk (of RMI): 0.072
[2]; All, pravastatin vs placebo
  RDStatin: 0.023
  RRStatin: 0.76
[2]; CARE patients with pattern 0 genotypes receiving pravastatin
  5 year risk of a RMI: 7.9%
[2]; CARE patients with pattern 2 genotypes receiving pravastatin
  5 year risk of a RMI: 6.8%
[2]; CARE patients with pattern 3 genotype receiving pravastatin
  5 year risk of a RMI: 4.6%
[2]; CARE, all patients
  reduction in risk for RMI in treatment vs. placebo groups: 25%
[2]; CARE, all patients who received pravastatin 40 mg once daily
  5 year risk of having a recurrent MI (RMI): 7.2%
[2]; CARE, all patients, pravastatin vs placebo
  Cox Proportional Hazard Ratio (HR age-adjusted) for RMI: 0.75
[2]; High risk ABCA1 genotype
  Age-adjusted pravastatin effect on RMI, RR: 0.9567
[2]; High risk HSPG2 genotype
  Age-adjusted pravastatin effect on RMI, RR: 0.8097
[2]; High risk NPC1 genotype
  Age-adjusted pravastatin effect on RMI, RR: 1.0824
[2]; High risk, non-protective genotypes (ABCA1, NPC1, HSPG2)
  Age-adjusted pravastatin effect on RMI, RR: 1.7175
[2]; Low risk ABCA1, NPC1 and HSPG2 (pattern 3 genotype)
  Age-adjusted pravastatin effect on RMI, RR: 0.2399
[2]; Low risk ABCA1 and HSPG2 only
  Age-adjusted pravastatin effect on RMI, RR: 1.0054
[2]; Low risk ABCA1 and NPC1 only (pattern 2 genotype)
  Age-adjusted pravastatin effect on RMI, RR: 0.5258
[2]; Low risk ABCA1 genotype
  Age-adjusted pravastatin effect on RMI, RR: 0.5883
[2]; Low risk HSPG2 genotype
  Age-adjusted pravastatin effect on RMI, RR: 0.3934
[2]; Low risk NPC1 and HSPG2 only
  Age-adjusted pravastatin effect on RMI, RR: 0.2964
[2]; Low risk NPC1 genotype
  Age-adjusted pravastatin effect on RMI, RR: 0.5938
[2]; Low risk, protective ABCA1 only
  Age-adjusted pravastatin effect on RMI, RR: 0.8765
[2]; Low risk, protective HSPG2 only
  Age-adjusted pravastatin effect on RMI, RR: 0.2487
[2]; Low risk, protective NPC1 only
  Age-adjusted pravastatin effect on RMI, RR: 0.8954
[2]; Pattern 0, pravastatin arm
  No RMI (number of patients): 906
  RMI (number of patients): 78
  Risk (of RMI): 0.079
[2]; [4]
  RDStatin: 0.001
  RRStatin: 0.98
[2]; Pattern 2, pravastatin arm
  No RMI (number of patients): 342
  RMI (number of patients): 25
  Risk (of RMI): 0.068
[2]; [5]
  RDStatin: 0.057
  RRStatin: 0.55
[2]; Pattern 3, pravastatin arm
  No RMI (number of patients): 62
  RMI (number of patients): 3
  Risk (of RMI): 0.046
[2]; [6]
  RDStatin: 0.147
  RRStatin: 0.24
[2]; pattern 2 genotypes
  HR for RMI, pravastatin vs no statin: 0.53
  reduction in risk over a 5 year period for RMI: 50%
[2]; pattern 3 genotype
  HR for RMI, pravastatin vs no statin: 0.2
  reduction in risk over a 5 year period for RMI: 80%
